The source of these data is patent US20220117968A1, “THIENO[2,3-D)PYRIMIDINES AND BENZOFURO(3,2-D)PYRIMIDINES AS ANTIMICROBIAL AGENTS” (Saint Louis University, priority 2017, published 2022).

Assay [1] concerns WT Mtb Erdman strain. Description: Microplate Alamar Blue Assay (MABA). The conditions noted are these: Mycobacterium tuberculosis, Middlebrook 7H9 media, 7 days at 37° C., resazurin 24 hours; for MIC50: concentration that inhibits mycobacterial survival by 50%, read-out: MABA MIC50; for MIC90: concentration that inhibits mycobacterial survival by 90%, read-out: MABA MIC90. It counts as cell-based. A general note: The colour change of resazurin is a common sign of viable cells or microbes.

The subject of assay [2] is WT Mtb Erdman. Description: Disk zone of inhibition assay. It counts as cell-based. Conditions: Mycobacterium tuberculosis, 240 h, radius of zone absent of bacterial growth, 5 μl of 100 mM stock in DMSO on disk, Middlebrook 7H10 agar, 10 days at 37° C.

Values after ≈ are worked out from the molar mass of the structure shown.

As to `CCc1nc(NC2CCC2)c2cc(C)sc2n1` [Example 1019, N-Cyclobutyl-2-ethyl-6-methylthieno[2,3-d]pyrimidin-4-amine], in assay [1], the MIC50 was 11.1 µM (≈ 2.75 µg/mL) and the MIC90 came to 26.4 µM (≈ 6.53 µg/mL). The zone of inhibition at 100000 µM (stock) in assay [2] was found to be 10 mm.
The matching figures for `CCc1nc(NCCOC)c2cc(C)sc2n1` [Example 0950, 2-ethyl-N-(2-methoxyethyl)-6-methylthieno[2,3-d]pyrimidin-4-amine]: 15.9 µM (≈ 4 µg/mL), 28.4 µM (≈ 7.14 µg/mL) and 0 mm.
For the compound `CCc1nc(NC(C)(C)C)c2cc(C)sc2n1` [Example 1069, N-tert-Butyl-2-ethyl-6-methyl-thieno[2,3-d]pyrimidin-4-amine], in assay [1], the MIC50 was 30.9 µM (≈ 7.71 µg/mL) and the MIC90 is above 50 µM. Besides, the zone of inhibition at 100000 µM (stock) in assay [2] is 5 mm.
Turning to `CCCCNc1nc(C)nc2sc3c(c12)CCCC3` [Example 0881, N-butyl-5-methyl-8-thia-4,6-diazatricyclo[7.4.0.0^2,^7]trideca-1(9),2,4,6-tetraen-3-amine], in assay [1], the MIC50 stood at 6.45 µM (≈ 1.78 µg/mL) and the MIC90 turned out to be 13.4 µM (≈ 3.69 µg/mL). The compound further returned a zone of inhibition at 100000 µM (stock) in assay [2] of 7 mm.
With `Cc1cc2c(NC3CC3)nc(C(C)C)nc2s1` [Example 1061, N-Cyclopropyl-2-isopropyl-6-methyl-thieno[2,3-d]pyrimidin-4-amine], in assay [1], the MIC50 came out at 0.615 µM (≈ 0.152 µg/mL) and the MIC90 was 1.28 µM (≈ 0.317 µg/mL). Moreover, in assay [2], the zone of inhibition at 100000 µM (stock) turned out to be 19 mm.
Taken in the same sequence, the figures for `CCCCN(C)c1nc(CC)nc2sc(C)cc12` [Example 1021, N-Butyl-2-ethyl-N,6-dimethylthieno[2,3-d]pyrimidin-4-amine] were 3.93 µM (≈ 1.04 µg/mL), 9.81 µM (≈ 2.58 µg/mL) and 10 mm.
In the case of `CCc1nc(NCC(F)(F)F)c2cc(C)sc2n1` [Example 1072, 2-Ethyl-6-methyl-N-(2,2,2-trifluoroethyl)thieno[2,3-d]pyrimidin-4-amine], in assay [1], the MIC50 is 6.32 µM (≈ 1.74 µg/mL) and the MIC90 was determined as 19.2 µM (≈ 5.29 µg/mL). Further, in assay [2], the zone of inhibition at 100000 µM (stock) amounted to 9 mm.
Take `CCc1nc(NCCCc2ccccc2)c2oc3ccccc3c2n1` [Example 1300, 2-Ethyl-N-(3-phenylpropyl)benzofuro[3,2-d]pyrimidin-4-amine]: in assay [1], the MIC50 was 0.164 µM (≈ 0.0544 µg/mL) and the MIC90 came to 0.389 µM (≈ 0.129 µg/mL).
In the case of `Cc1nc(NCc2ccccc2)c2c(C)c(C)sc2n1` [Example 0795, N-Benzyl-2,5,6-trimethylthieno[2,3-d]pyrimidin-4-amine], in assay [1], the MIC50 is 25.4 µM (≈ 7.2 µg/mL) and the MIC90 was found to be 28.4 µM (≈ 8.05 µg/mL).
For the compound `Cc1cc2c(NC3CC3)nc(Cc3ccc(F)cc3)nc2s1` [Example 1063, N-Cyclopropyl-2-[(4-fluorophenyl)methyl]-6-methyl-thieno[2,3-d]pyrimidin-4-amine], in assay [1], the MIC50 came out at 21 µM (≈ 6.58 µg/mL) and the MIC90 was 41.7 µM (≈ 13.1 µg/mL).
On to `CCCCNc1nc(CC)nc2c1oc1ccccc12` [Example 1301, N-Butyl-2-ethylbenzofuro[3,2-d]pyrimidin-4-amine], for which, in assay [1], the MIC50 worked out at 3.8 µM (≈ 1.02 µg/mL) and the MIC90 was found to be 8.97 µM (≈ 2.42 µg/mL).
Turning to `FC(F)(F)C(F)(F)c1nc(NCCCc2ccccc2)c2ccsc2n1` [Example 1539, 2-(1,1,2,2,2-Pentafluoroethyl)-N-(3-phenylpropyl)thieno[2,3-d]pyrimidin-4-amine], in assay [1], the MIC50 came to 4.9 µM (≈ 1.9 µg/mL) and the MIC90 turned out to be 7.36 µM (≈ 2.85 µg/mL).
Consider `CCc1nc(NCCCC(F)(F)F)c2c(C)csc2n1` [Example 1700, 2-Ethyl-5-methyl-N-(4,4,4-trifluorobutyl)thieno[2,3-d]pyrimidin-4-amine], for which, in assay [1], the MIC50 came to 26.8 µM (≈ 8.13 µg/mL) and the MIC90 came to 30.7 µM (≈ 9.31 µg/mL).
For `Cc1cc2c(NCCCc3ccccc3)nc(C(F)(F)F)nc2s1` [Example 1536, 6-Methyl-N-(3-phenylpropyl)-2-(trifluoromethyl)thieno[2,3-d]pyrimidin-4-amine], in assay [1], the MIC50 turned out to be 0.386 µM (≈ 0.136 µg/mL) and the MIC90 came out at 0.479 µM (≈ 0.168 µg/mL).

A word on the MIC50: it is an inhibitory concentration at the 50% level, which refers to growth in some studies and to a panel of isolates in others. For orientation: MIC90 means an inhibitory concentration at the 90% level, which refers to growth in some studies and to a panel of isolates in others. As usually defined, the zone of inhibition is the size of the clear area around the sample on an inoculated plate. Higher therefore signals wide suppression of growth.
